Substitutions are numbered along the chain they refer to. In brackets after ≈: the same amount, converted by molar mass.
Key:
[1] = biological target: T1, Low molecular weight phosphotyrosine protein phosphatase (Homo sapiens, UniProt P24666); experiment: Inhibition of His-tagged human LMW-PTP expressed in Escherichia coli BL21 using pNPP as substrate incubated for 10 mins by microplate reader based spectrophotometric analysis
T1 sequence (P24666 whole entry): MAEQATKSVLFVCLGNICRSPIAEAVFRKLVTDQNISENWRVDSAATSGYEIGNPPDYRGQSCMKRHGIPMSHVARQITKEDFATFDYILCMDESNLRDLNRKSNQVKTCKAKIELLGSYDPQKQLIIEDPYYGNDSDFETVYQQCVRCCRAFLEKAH

[2] = Aqueous solubility of compound at pH 6 by HPLC analysis; assay type: physicochemical; conditions: buffer
[3] = biological target: CYP2D6 (Homo sapiens, UniProt P10635); experiment: Inhibition of human hepatic CYP2D6 using bufuralol HCL as substrate measured after 3 mins by LC-MS analysis relative to control; assay type: ADME, tissue-based; design: concentration or dose not given beside the values; conditions: human hepatic CYP2D6 (liver), probe bufuralol HCl
[4] = biological target: CYP2C9 (Homo sapiens, UniProt P11712); experiment: Inhibition of human hepatic CYP2C9 using diclofenac as substrate measured after 10 mins by LC-MS analysis relative to control; assay type: ADME, tissue-based; design: concentration or dose not given beside the values; conditions: human hepatic CYP2C9 (liver), probe diclofenac
[5] = biological target: CYP3A4 (Homo sapiens, UniProt P08684); experiment: Inhibition of human hepatic CYP3A4 using midazolam as substrate measured after 3 mins by LC-MS analysis relative to control; assay type: ADME, tissue-based; design: concentration or dose not given beside the values; conditions: human hepatic CYP3A4 (liver), probe midazolam
[6] = Metabolic stability in human hepatic microsome at 4 uM measured after 30 mins by LC-MS analysis; assay type: ADME; conditions: liver microsomes, read-out: Stability
[7] = Metabolic stability in mouse hepatic microsome at 4 uM measured after 30 mins by LC-MS analysis; assay type: ADME; conditions: liver microsomes, read-out: Stability
[8] = Metabolic stability in dog hepatic microsome at 4 uM measured after 30 mins by LC-MS analysis; assay type: ADME, Canis lupus familiaris; conditions: liver microsomes, read-out: Stability
[9] = Plasma protein binding in mouse assessed as unbound fraction measured after 4.5 hrs by LC-MS/MS analysis; assay type: ADME, cell-free
[10] = biological target: T2, Low molecular weight phosphotyrosine protein phosphatase (Mus musculus, UniProt Q9D358); experiment: Inhibition of N-terminal His-tagged full length mouse LMW-PTP expressed in Escherichia coli BL21(DE3) by […] analysis
T2 sequence (Q9D358 whole entry): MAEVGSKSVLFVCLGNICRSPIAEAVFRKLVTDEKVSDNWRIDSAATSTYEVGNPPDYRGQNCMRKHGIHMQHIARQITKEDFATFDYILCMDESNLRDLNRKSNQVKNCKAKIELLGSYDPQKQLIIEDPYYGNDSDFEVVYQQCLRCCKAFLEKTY

[11] = AUC(0 to 8 hrs) in CD-1 mouse plasma at 10 mg/kg, po measured after 8 hrs by LC-MS/MS analysis; assay type: ADME, organism-based; design: dose 10 mg/kg, time 8 hrs, route po; conditions: in vivo
[12] = AUC(0 to 8 hrs) in CD-1 mouse plasma at 2 mg/kg, iv measured after 8 hrs by LC-MS/MS analysis; assay type: ADME, organism-based; design: dose 2 mg/kg, time 8 hrs, route iv; conditions: in vivo
[13] = Cmax in CD-1 mouse plasma at 10 mg/kg, po measured after 8 hrs by LC-MS/MS analysis; assay type: ADME, organism-based; design: dose 10 mg/kg, time 8 hrs, route po
[14] = Cmax in CD-1 mouse plasma at 2 mg/kg, iv measured after 8 hrs by LC-MS/MS analysis; assay type: ADME, organism-based; design: time 8 hrs, dose 2 mg/kg, route iv
[15] = Unbound Cmax in plasma of CD-1 mouse at 10 mg/kg, po measured after 8 hrs by LC-MS/MS analysis; assay type: ADME, organism-based; conditions: in vivo
[16] = Unbound Cmax in plasma of CD-1 mouse at 2 mg/kg, iv measured after 8 hrs by LC-MS/MS analysis; assay type: ADME, organism-based; conditions: in vivo
[17] = Volume of distribution at steady state in CD-1 mouse plasma at 2 mg/kg, iv measured after 8 hrs by LC-MS/MS analysis; assay type: ADME, organism-based; conditions: in vivo
[18] = Half life in CD-1 mouse plasma at 2 mg/kg, iv measured after 8 hrs by LC-MS/MS analysis; assay type: ADME, organism-based
[19] = Half life in CD-1 mouse plasma at 10 mg/kg, po measured after 8 hrs by LC-MS/MS analysis; assay type: ADME, organism-based; conditions: in vivo
[20] = Oral bioavailability in CD-1 mouse plasma at 10 mg/kg measured after 8 hrs by LC-MS/MS analysis; assay type: ADME, organism-based; conditions: mouse, in vivo, po, 10 mg/kg, 8 h
[21] = AUC(0 to 12 hrs) in Sprague-Dawley rat plasma at 30 mg/kg, po measured after 24 hrs by LC-MS/MS analysis; assay type: ADME, organism-based; design: time 24 hrs, dose 30 mg/kg, route po; conditions: in vivo
[22] = Cmax in Sprague-Dawley rat plasma at 30 mg/kg, po measured after 24 hrs by LC-MS/MS analysis; assay type: ADME, organism-based; design: time 24 hrs, dose 30 mg/kg, route po; conditions: in vivo
[23] = Unbound Cmax in plasma of Sprague-Dawley rat at 30 mg/kg, po measured after 24 hrs by LC-MS/MS analysis; assay type: ADME, organism-based; conditions: in vivo
[24] = Tmax in Sprague-Dawley rat plasma at 30 mg/kg, po measured after 24 hrs by LC-MS/MS analysis; assay type: ADME, organism-based; conditions: in vivo
[25] = Half life in Sprague-Dawley rat plasma at 30 mg/kg, po measured after 24 hrs by LC-MS/MS analysis; assay type: ADME, organism-based; conditions: in vivo
[26] = biological target: T3, Low molecular weight phosphotyrosine protein phosphatase (Rattus norvegicus, UniProt P41498); experiment: Inhibition of N-terminal His-tagged full length rat LMW-PTP expressed in Escherichia coli BL21(DE3)
T3 sequence (P41498 whole entry): T2 sequence (Q9D358 whole entry) with K35N, R65K, K80R, Y158H

[27] = Inhibition of PTP-Meg2 (unknown origin); design: species or system Homo sapiens
[28] = biological target: Dual specificity protein phosphatase 23 (Homo sapiens, UniProt Q9BVJ7); experiment: Inhibition of VHZ (unknown origin)
Chain of Dual specificity protein phosphatase 23 (Q9BVJ7 whole entry): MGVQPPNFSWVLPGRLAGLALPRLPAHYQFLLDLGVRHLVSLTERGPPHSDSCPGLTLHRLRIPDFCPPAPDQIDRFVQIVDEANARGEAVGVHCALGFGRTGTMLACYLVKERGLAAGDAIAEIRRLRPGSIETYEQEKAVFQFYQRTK

Chain of CYP3A4 (P08684 whole entry): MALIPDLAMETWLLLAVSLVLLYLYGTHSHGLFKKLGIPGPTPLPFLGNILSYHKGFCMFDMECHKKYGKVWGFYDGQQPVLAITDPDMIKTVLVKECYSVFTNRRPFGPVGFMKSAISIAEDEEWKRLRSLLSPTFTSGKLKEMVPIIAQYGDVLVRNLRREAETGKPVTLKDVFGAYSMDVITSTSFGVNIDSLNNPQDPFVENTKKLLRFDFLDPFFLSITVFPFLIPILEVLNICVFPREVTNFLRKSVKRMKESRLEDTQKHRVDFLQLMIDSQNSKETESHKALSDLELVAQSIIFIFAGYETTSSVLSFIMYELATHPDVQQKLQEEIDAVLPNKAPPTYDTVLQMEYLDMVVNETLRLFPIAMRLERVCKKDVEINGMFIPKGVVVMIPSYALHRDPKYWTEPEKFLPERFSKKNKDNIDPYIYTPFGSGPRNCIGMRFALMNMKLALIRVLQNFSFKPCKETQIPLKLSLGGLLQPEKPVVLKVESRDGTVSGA
Chain of CYP2C9 (P11712 whole entry): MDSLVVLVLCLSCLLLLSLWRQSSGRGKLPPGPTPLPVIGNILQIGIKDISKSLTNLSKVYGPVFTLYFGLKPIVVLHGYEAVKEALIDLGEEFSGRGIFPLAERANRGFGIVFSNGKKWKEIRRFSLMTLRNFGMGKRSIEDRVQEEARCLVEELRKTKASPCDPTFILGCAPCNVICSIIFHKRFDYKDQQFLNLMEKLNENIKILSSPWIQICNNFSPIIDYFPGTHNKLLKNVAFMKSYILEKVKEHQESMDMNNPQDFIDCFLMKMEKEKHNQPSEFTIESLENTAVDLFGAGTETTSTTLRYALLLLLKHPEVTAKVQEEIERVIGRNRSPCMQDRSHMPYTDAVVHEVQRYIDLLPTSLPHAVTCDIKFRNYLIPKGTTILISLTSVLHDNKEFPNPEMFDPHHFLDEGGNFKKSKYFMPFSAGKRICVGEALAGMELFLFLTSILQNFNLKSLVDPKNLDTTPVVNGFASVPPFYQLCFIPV
Chain of CYP2D6 (P10635 whole entry): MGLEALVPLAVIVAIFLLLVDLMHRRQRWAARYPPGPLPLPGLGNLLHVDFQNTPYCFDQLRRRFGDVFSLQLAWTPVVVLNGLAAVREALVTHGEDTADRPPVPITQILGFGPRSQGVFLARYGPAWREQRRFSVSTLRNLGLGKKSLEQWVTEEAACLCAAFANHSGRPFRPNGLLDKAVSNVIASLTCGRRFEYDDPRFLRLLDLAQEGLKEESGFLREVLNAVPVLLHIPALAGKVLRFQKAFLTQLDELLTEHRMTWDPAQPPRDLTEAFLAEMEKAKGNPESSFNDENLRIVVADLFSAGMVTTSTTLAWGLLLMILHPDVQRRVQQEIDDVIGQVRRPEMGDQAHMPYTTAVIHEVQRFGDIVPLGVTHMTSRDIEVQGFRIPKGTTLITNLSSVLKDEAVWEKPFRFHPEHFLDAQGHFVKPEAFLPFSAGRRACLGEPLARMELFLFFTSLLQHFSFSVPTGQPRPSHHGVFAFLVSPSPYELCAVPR

Q: Which IC50 [1] does the source give for `O=C(CS(=O)(=O)O)Nc1cc(Br)cc2ccccc12` here?
A: Its IC50 is 6000 nM.

Q: Which IC50 [1] does the source give for `O=C(CS(=O)(=O)O)Nc1ncc(-c2ccccc2)s1` here?
A: Its IC50 is 1500 nM.

Q: For `Cc1c(Br)cc(NC(=O)[C@@H](C#N)S(=O)(=O)O)cc1Br`, which IC50 [1] is on record?
A: Its IC50 is 4400 nM.

Q: For `O=C(Nc1nccs1)NS(=O)(=O)O`, which IC50 [1] is on record?
A: Its IC50 is 49 nM.

Q: For `O=C(CS(=O)(=O)O)Nc1cc(C(F)(F)F)cc(C(F)(F)F)c1`, which IC50 [1] is on record?
A: The IC50 was 5400 nM.

Q: Which results are given for `O=C(Nc1nc2ccccc2s1)C(c1ccccc1)S(=O)(=O)O` (stereo not given)?
A: solubility [2]: 0.66 mg/mL (≈ 1890 µM); inhibition at 0.05 h [3]: 5%; inhibition at 10 min [4]: 69%; inhibition at 0.05 h [5]: 9%; remaining at 0.5 h, 4 µM [6]: 54%; remaining at 0.5 h, 4 µM [7]: 17%; remaining at 0.5 h, 4 µM [8]: 61%; Fu [9]: < 0.006

Q: Which IC50 [10] does the source give for `O=C(CS(=O)(=O)O)Nc1ccc(N2CCOCC2)c(Br)c1` here?
A: Its IC50 is 36 nM.

Q: What about the IC50 [1] of the same molecule?
A: The IC50 was 1500 nM.

Q: And the solubility [2]?
A: Its solubility is 0.76 mg/mL (≈ 2000 µM).

Q: And the inhibition at 0.05 h [3]?
A: Its inhibition at 0.05 h is 20%.

Q: What about the inhibition at 10 min [4] of the same molecule?
A: The inhibition at 10 min was 64%.

Q: And the inhibition at 0.05 h [5]?
A: The inhibition at 0.05 h was 36%.

Q: What about the remaining at 0.5 h, 4 µM [6] of the same molecule?
A: Its remaining at 0.5 h, 4 µM is 3%.

Q: And the remaining at 0.5 h, 4 µM [7]?
A: The remaining at 0.5 h, 4 µM was 3%.

Q: And the remaining at 0.5 h, 4 µM [8]?
A: Its remaining at 0.5 h, 4 µM is 11%.

Q: What about the Fu [9] of the same molecule?
A: The Fu was 0.243.

Q: And the AUC [11]?
A: Its AUC is 1.94 µM·h.

Q: What about the AUC [12] of the same molecule?
A: Its AUC is 1720 nM·h.

Q: What about the Cmax ([13]; mouse, in vivo, 8 h) of the same molecule?
A: Its Cmax is 483 nM.

Q: And the Cmax [14]?
A: Its Cmax is 8.09 µM.

Q: What about the fCmax [15] of the same molecule?
A: The fCmax was 117 nM.

Q: What about the fCmax [16] of the same molecule?
A: The fCmax was 1966 nM.

Q: And the Vdss [17]?
A: Its Vdss is 0.73 L/kg.

Q: And the t1/2 ([18]; mouse, in vivo, iv, 2 mg/kg, 8 h)?
A: Its t1/2 is 12 min.

Q: And the t1/2 [19]?
A: Its t1/2 is 4.2 h.

Q: What about the F [20] of the same molecule?
A: Its F is 23%.

Q: What about the AUC [21] of the same molecule?
A: Its AUC is 1.23 µM·h.

Q: And the Cmax [22]?
A: The Cmax was 258 nM.

Q: What about the fCmax [23] of the same molecule?
A: Its fCmax is 43 nM.

Q: And the Tmax [24]?
A: Its Tmax is 1 h.

Q: And the t1/2 [25]?
A: Its t1/2 is 6.8 h.

Q: What about the IC50 [26] of the same molecule?
A: The IC50 was 36 nM.

Q: Which IC50 [1] does the source give for `O=C(CS(=O)(=O)O)Nc1cnc(N2CCOCC2)c(Br)c1` here?
A: The IC50 was 1200 nM.

Q: With `O=C(CS(=O)(=O)O)Nc1cc(I)cc(I)c1` as the molecule, how does the IC50 [1] read?
A: The IC50 was 3400 nM.

Q: Which IC50 [1] does the source give for `O=C(CS(=O)(=O)O)Nc1cnc2ncccc2c1` here?
A: The IC50 was 1500 nM.

Q: With `Cc1c(Br)cc(NC(=O)[C@@H](c2cncs2)S(=O)(=O)O)cc1Br` as the molecule, how does the IC50 [1] read?
A: Its IC50 is 11400 nM.

Q: For `Cc1c(Br)cc(NC(=O)CS(=O)(=O)O)cc1Br`, which IC50 [27] is on record?
A: The IC50 was over 100 µM.

Q: And the IC50 [10]?
A: The IC50 was 62 nM.

Q: What about the IC50 [1] of the same molecule?
A: Its IC50 is 2200 nM.

Q: What about the IC50 [28] of the same molecule?
A: The IC50 was over 100 µM.

Q: And the solubility [2]?
A: The solubility was 0.74 mg/mL (≈ 1910 µM).

Q: What about the inhibition at 0.05 h [3] of the same molecule?
A: The inhibition at 0.05 h was 1%.

Q: And the inhibition at 10 min [4]?
A: Its inhibition at 10 min is 18%.

Q: What about the inhibition at 0.05 h [5] of the same molecule?
A: The inhibition at 0.05 h was 15%.

Q: And the remaining at 0.5 h, 4 µM [6]?
A: Its remaining at 0.5 h, 4 µM is 7%.

Q: And the remaining at 0.5 h, 4 µM [7]?
A: Its remaining at 0.5 h, 4 µM is 0%.

Q: And the remaining at 0.5 h, 4 µM [8]?
A: Its remaining at 0.5 h, 4 µM is 23%.

Q: And the Fu [9]?
A: The Fu was under 0.008.

Q: What about the AUC [11] of the same molecule?
A: The AUC was 8.8 µM·h.

Q: And the AUC [12]?
A: Its AUC is 4100 nM·h.

Q: What about the Cmax ([13]; CD-1, mouse, plasma) of the same molecule?
A: The Cmax was 2000 nM.

Q: What about the Cmax [14] of the same molecule?
A: The Cmax was 2 µM.

Q: What about the fCmax [15] of the same molecule?
A: Its fCmax is under 16 nM.

Q: And the fCmax [16]?
A: The fCmax was under 16 nM.

Q: And the Vdss [17]?
A: Its Vdss is 0.58 L/kg.

Q: And the half-life ([18]; CD-1, mouse, plasma)?
A: The half-life was 90 min.

Q: What about the t1/2 [19] of the same molecule?
A: Its t1/2 is 4.2 h.

Q: What about the F [20] of the same molecule?
A: The F was 43%.

Q: And the AUC [21]?
A: Its AUC is 21.1 µM·h.

Q: And the Cmax [22]?
A: Its Cmax is 3030 nM.

Q: And the fCmax [23]?
A: Its fCmax is under 85 nM.

Q: And the Tmax [24]?
A: The Tmax was 1.7 h.

Q: And the t1/2 [25]?
A: Its t1/2 is 3.6 h.

Q: And the IC50 [26]?
A: The IC50 was 62 nM.

Q: Which IC50 [1] does the source give for `CS(=O)(=O)c1ccc2nc(NC(=O)CS(=O)(=O)O)sc2c1` here?
A: Its IC50 is 300 nM.

Q: With `O=C(Nc1ccc(N2CCOCC2)c(Br)c1)NS(=O)(=O)O` as the molecule, how does the IC50 [1] read?
A: Its IC50 is 8 nM.

Q: For `O=C(CS(=O)(=O)O)Nc1cc(Br)cc(Br)c1`, which IC50 [1] is on record?
A: Its IC50 is 6000 nM.

Q: Which IC50 [1] does the source give for `Cc1cc([N+](=O)[O-])c2nc(NC(=O)CS(=O)(=O)O)sc2c1` here?
A: The IC50 was 400 nM.

Reference: ChEMBL document CHEMBL5214960 (J Med Chem, 2022)
